Experimental data published in patent US5494895A, “Scorpion peptide margatoxin with immunosuppressant activity” (Merck & Co., Inc., priority 1993, dated 1996).
Peptide text beside a SMILES is read from it.

Assays:
Kv 1.3 = target: T1, Kv 1.3 (Rattus norvegicus, UniProt P15384); assay: [125I]ChTX binding to rat brain synaptic plasma membrane vesicles; conditions: low ionic strength (50 mM NaCl, 20 mM Tris-HCl, pH 7.4)
T1 construct: from tissue; host or cells: rat brain synaptic plasma membrane vesicles
T1 sequence (P15384 whole entry): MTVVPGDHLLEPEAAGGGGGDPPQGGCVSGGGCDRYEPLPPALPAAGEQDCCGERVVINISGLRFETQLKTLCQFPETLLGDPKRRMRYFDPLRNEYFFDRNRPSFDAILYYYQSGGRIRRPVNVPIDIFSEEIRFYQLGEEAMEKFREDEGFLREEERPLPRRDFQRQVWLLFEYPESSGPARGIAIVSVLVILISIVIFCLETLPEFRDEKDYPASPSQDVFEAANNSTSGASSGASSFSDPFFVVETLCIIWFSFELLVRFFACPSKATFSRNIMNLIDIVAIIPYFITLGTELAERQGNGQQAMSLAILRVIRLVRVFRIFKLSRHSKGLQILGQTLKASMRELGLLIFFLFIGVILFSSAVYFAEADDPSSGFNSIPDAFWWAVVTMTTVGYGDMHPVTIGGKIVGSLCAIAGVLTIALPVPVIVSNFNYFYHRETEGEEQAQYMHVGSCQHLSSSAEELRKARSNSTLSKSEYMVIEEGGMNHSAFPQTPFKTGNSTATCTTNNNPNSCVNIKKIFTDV
Experimental: The potency of MgTX as an inhibitor of [^125 I]ChTX binding to Kv 1.3 was evaluated. The binding of [^125 I]ChTX to either rat brain synaptic plasma membrane vesicles (Kv 1.3 channel; Vazquez et al., J. Biol. Chem. 265, 15564, 1990) or bovine aortic smooth muscle sarcolemmal membranes (Maxi-K channel; Vazquez et al., J. Biol. Chem. 264, 20402, 1989) was determined as described. Briefly, membrane vesicles were incubated with [^125 I]ChTX in the presence or absence of other added agents, until equilibrium was achieved. Separation of bound from free ligand was accomplished by filtration through GF/C glass fiber filters (WHATMAN) that had been presoaked in 0.5% polyethyleneimine. Nonspecific binding was determined in the presence of 10 nM unlabeled ChTX. Data from saturation experiments were analyzed in a Scatchard representation to determine Kd and Bmax values. Triplicate samples were obtained for each experimental point and the data were averaged. The standard deviation of the mean was typically less than 2%. […] As an indication of selectivity, MgTX had no effect on [^125 I]ChTX binding to the Maxi-K channel in smooth muscle membranes at concentrations up to 10 nM.

[1] = test system: Kv 3 (rat Kv 1.3; human Kv 1.3); assay: Two-electrode voltage clamp of Xenopus oocytes expressing Kv 3 (Kv 1.3); format: cell-based, rat and human; conditions: read-out: IC50 on cloned channel Kv 3
Experimental: (§1) Ionic currents were also recorded from Xenopus oocytes that had been injected with RNA transcribed in vitro from one or another of the following K^+ channel cDNA clones. Kv 1 (rat Kv 1.5), rat or human Kv 3 (rat Kv 1.3; human Kv 1.3), Kv 4 (rat Kv 3.1 ), rat ISK, Kv 2 (rat Kv 1.6) or Drosophila Shaker-H4. The names of the clones are listed as originally published, with the appropriate parenthetical designation according to the unified gene nomenclature proposed by Chandy. Shaker-H4 is a splice variant from the original Drosophila Shaker K^+ channel gene. Kv 1.3 is the ChTX-sensitive delayed rectifier current found in rat and human T lymphocytes (data from rat and human clones were indistinguishable and were combined) and it is a member of the Shaker family. Kv 1.5 is a channel cloned from rat (Swanson et al., Neuron, 4, 929, 1990) and is another member of the Shaker family. The Kv 1.5 transcript has been detected in pancreatic β cells as described in Philipson, et al., Proc. Natl. Acad. Sci. U.S.A. 88, 53, 1991. […] The ISK transcript has been detected in lymphocytes (Attali et al., J. Biol. Chem,. 267, 8650, 1992), but no evidence of the IKs current has been found in those cells.
(§2) Methods for oocyte isolation and micro-injection were previously described in Goldin, Meth. […] Currents expressed in oocytes were measured using a DAGAN model CA-1 two-electrode voltage clamp. […]

ISK = target: T2, ISK (Rattus norvegicus, UniProt P15383); assay: Two-electrode voltage clamp of Xenopus oocytes expressing ISK; format: cell-based; conditions: 200 nM MgTX
T2 construct: expressed in transfected cells; host or cells: Xenopus oocytes injected with RNA transcribed in vitro from the cDNA clone
T2 sequence (P15383 whole entry): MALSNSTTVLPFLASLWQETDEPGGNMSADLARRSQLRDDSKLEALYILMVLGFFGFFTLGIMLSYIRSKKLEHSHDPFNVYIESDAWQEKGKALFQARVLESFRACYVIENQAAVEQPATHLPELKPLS
T2 sequence (P70057 whole entry partner): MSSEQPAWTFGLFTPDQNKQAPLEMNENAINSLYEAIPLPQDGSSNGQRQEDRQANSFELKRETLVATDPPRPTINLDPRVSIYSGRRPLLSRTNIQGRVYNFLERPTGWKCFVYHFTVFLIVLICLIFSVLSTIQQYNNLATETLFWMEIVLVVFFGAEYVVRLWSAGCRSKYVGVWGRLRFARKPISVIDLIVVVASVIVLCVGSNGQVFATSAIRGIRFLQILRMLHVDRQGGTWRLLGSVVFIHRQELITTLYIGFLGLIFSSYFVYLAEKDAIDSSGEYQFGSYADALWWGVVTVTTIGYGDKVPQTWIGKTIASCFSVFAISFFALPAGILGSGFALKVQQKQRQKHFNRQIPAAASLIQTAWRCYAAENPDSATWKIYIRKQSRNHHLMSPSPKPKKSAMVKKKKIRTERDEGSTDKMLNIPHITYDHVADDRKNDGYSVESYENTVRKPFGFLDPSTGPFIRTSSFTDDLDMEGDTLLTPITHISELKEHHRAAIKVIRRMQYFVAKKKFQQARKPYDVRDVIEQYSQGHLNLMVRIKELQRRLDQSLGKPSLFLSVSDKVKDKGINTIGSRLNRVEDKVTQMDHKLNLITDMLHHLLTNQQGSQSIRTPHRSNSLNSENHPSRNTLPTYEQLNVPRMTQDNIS
Experimental: as §1, §2

Q: Which results are given for `CC[C@H](C)[C@H](NC(=O)[C@@H](N)[C@@H](C)O)C(=O)N[C@H](C(=O)N[C@@H](CC(N)=O)C(=O)N[C@H](C(=O)N[C@@H](CCCCN)C(=O)N[C@H]1CSSC[C@@H]2NC(=O)[C@H](CCCCN)NC(=O)[C@H](C)NC(=O)CNC(=O)[C@H](C)NC(=O)[C@H](CO)NC(=O)[C@H](CCC(N)=O)NC(=O)CNC(=O)[C@H](Cc3ccccc3)NC(=O)[C@H](CCC(N)=O)NC(=O)[C@H](C)NC(=O)[C@H](CCCCN)NC(=O)[C@@H]3CSSC[C@@H](C(=O)N[C@@H](Cc4ccc(O)cc4)C(=O)N4CCC[C@H]4C(=O)N[C@@H](Cc4c[nH]cn4)C(=O)O)NC(=O)[C@H](CCCCN)NC(=O)[C@H](CSSC[C@H](NC(=O)[C@H](CCC(N)=O)NC(=O)[C@H](CCCCN)NC(=O)[C@@H]4CCCN4C(=O)[C@H](CO)NC(=O)[C@H]([C@@H](C)O)NC1=O)C(=O)N[C@@H](CC(C)C)C(=O)N1CCC[C@H]1C(=O)N1CCC[C@H]1C(=O)N3)NC(=O)[C@H](CCCCN)NC(=O)CNC(=O)[C@H](CC(N)=O)NC(=O)[C@H](CCSC)NC2=O)C(C)C)[C@@H](C)CC` [MgTX, Margatoxin] (HELM PEPTIDE1{T.I.I.N.V.K.C.T.S.P.K.Q.C.L.P.P.C.K.A.Q.F.G.Q.S.A.G.A.K.C.M.N.G.K.C.K.C.Y.P.H}$PEPTIDE1,PEPTIDE1,7:R3-29:R3|PEPTIDE1,PEPTIDE1,13:R3-34:R3|PEPTIDE1,PEPTIDE1,17:R3-36:R3$$$V2.0; N-terminus and C-terminus assumed; bridges inferred)?
A: Hill coefficient of inhibition of [125I]ChTX binding to brain membranes (Kv 1.3): 1.7; IC50 (Kv 1.3; read-out: IC50 for inhibition of [125I]ChTX binding to brain membranes): 0.036 nM; IC50 [1]: ~0.03 nM; sensitivity of cloned channel ISK to block (ISK): completely insensitive
